Source: patent US12552806B2, “Androgen receptor regulation by small molecule enantiomers” (University of Southern California, priority 2020, dated 2026)
pEC50, pIC50: −log10 of the molar value. Entries after “also recorded” stand apart in the source; their conditions may differ.

Key:
[1] = test system: AR; test: ARE-luciferase assay in cells expressing ARE-luciferase (enantiomer pairs); format: cell-based; conditions: 10 μM mixture + 1 nM R1881, 24 h
Excerpt: (§1) To test for corresponding transcriptional activation, we performed assays in cells expressing ARE-luciferase. […] Next, we examined gene expression in VCaP cells, a hormone-responsive but independent model of CRPC highly expressing AR.
(§2) PC3 and VCaP cell lines were obtained from ATCC and cultured as recommended. Generation and culture of PC3 GFP-AR cells were described previously (14). ARE-luciferase cells were generated using Cignal Lenti AR Reporter (Qiagen). Cell lines were authenticated using NIST-approved short tandem repeat DNA profiling and tested negative for mycoplasma. Drug treatments were conducted after overnight culture in phenol red-free media supplemented with charcoal:dextran stripped FBS.
(§3) Luminometer Assays. For ARE-luciferase, luciferase substrate was added to lysed cells after 24-h treatment. For viability, cells were lysed with CellTiter-Glo 3D Cell Viability Assay (Promega) after 6 d of treatment. Measurements were performed in 96-well plates (Corning) using a GloMax 96 Microplate Luminometer (Promega).

[2] = test system: AR-regulated genes in VCaP cells; test: RT-qPCR array of AR target genes in VCaP cells; format: cell-based; conditions: 82 AR target genes, vs NTC and DHT
Procedure: as §1
RT-qPCR Array. RNA was isolated using the Illustra RNAspin Mini Kit (GE Healthcare). RNA was transcribed to cDNA using RT2 First Strand Kit (Qiagen). RT-qPCR was performed using Biorad CFX Connect on a RT2 Profiler PCR Array Human Androgen Receptor Signaling Targets (Qiagen).

[3] = Microsome stability assay; format: in vitro ADME, human; conditions: for toxic metabolite BMS-501949 detected in LCMS: 8 h incubation, o-fluoro-BMS-501949 for EITM-1707
Procedure: Microsome stability assays. In vitro metabolism was determined as described previously. Specifically, to measure metabolism of parent compounds, the higher throughput protocol was applied, in which 0.5 mg/ml pooled human liver microsomes (Sigma) were mixed with 1 μM drugs and phosphate buffer (0.1 M, pH 7.4) in 96-well plates. Enzymatic reactions were started by adding 1 mM NADPH (Sigma Aldrich) followed by incubation at 37° C. Fractions were quenched by transfer to ice-cold acetonitrile after the indicated incubation times. Samples were analyzed using liquid chromatography-mass spectrometry (LC/MS-MS). Rates of intrinsic clearance were determined from the amount of the parent compound consumed per min per mg of microsomal protein as described previously. To analyze accumulating metabolites, the basic protocol was used, and microsomes were incubated with 10 μM drugs for 8 h.

[4] = test system: LNCaP cells; test: LNCaP cell viability assay (CellTiter-Glo); format: cell-based; conditions: 1 and 10 μM drug + 60 pM R1881, 5 days
Procedure: LNCaP cell viability assay. Cells were seeded into 96-well fibronectin coated (1 ug/cm^2) plates (CellCarrier, PerkinElmer) at a density of 5,000 cells/well. […] Drug-treated cells were lysed with CellTiter-Glo 3D Cell Viability Assay (Promega) and transferred to white 96-well plates (Corning). Luminescence was measured utilizing GloMax 96 Microplate Luminometer (Promega). Analysis was conducted in the R statistical environment (v 3.6.0). […] Visualizations were facilitated by the ggplot2 package (v3.2.1), with standard error (S.E.) shown where appropriate.

[5] = target: T1, AR T878A (Homo sapiens, UniProt P10275, T878A); test: cell-based; format: cell-based
T1 construct: LNCaP cells expressing AR T878A; endogenous in cells; host or cells: LNCaP-luc (LNCaP stably carrying the Cignal Lenti AR Reporter)
T1 sequence (P10275 1-920 T878A): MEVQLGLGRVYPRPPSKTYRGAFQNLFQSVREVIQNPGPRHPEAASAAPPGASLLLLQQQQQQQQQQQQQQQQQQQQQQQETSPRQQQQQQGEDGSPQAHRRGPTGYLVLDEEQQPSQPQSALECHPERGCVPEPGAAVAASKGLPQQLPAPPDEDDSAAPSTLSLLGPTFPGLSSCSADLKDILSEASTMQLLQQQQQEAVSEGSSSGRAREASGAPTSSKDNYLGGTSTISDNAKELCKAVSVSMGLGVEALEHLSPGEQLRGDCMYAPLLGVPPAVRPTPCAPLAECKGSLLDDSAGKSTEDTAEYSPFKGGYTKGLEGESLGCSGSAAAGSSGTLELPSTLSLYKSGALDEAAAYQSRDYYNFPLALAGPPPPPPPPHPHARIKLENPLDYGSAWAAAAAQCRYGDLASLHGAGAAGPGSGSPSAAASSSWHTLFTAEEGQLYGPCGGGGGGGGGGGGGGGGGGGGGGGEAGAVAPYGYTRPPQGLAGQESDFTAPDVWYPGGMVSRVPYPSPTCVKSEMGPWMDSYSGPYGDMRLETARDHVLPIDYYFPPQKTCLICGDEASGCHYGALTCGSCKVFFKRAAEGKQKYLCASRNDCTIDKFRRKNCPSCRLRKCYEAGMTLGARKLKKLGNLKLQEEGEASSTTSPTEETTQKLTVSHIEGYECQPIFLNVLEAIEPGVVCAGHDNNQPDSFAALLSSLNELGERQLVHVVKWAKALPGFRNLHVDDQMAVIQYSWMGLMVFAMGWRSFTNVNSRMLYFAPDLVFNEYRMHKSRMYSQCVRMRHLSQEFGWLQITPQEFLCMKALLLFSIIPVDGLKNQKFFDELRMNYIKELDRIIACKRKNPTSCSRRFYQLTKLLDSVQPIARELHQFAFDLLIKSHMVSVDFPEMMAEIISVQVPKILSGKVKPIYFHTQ
Excerpt: We generated a LNCaP cell line stably expressing luciferase controlled by androgen response elements (ARE-luciferase).
Cell Culture and Treatments. The LNCaP cell line were obtained from ATCC, cultured in RPMI1640 (Corning) supplemented with 10% heat-inactivated GemCell bovine serum (Gemini Bio-Products) and Penicillin-Streptomycin (Gemini Bio-Products). Cell lines stably expressing ARE-luciferase (LNCaP-luc) was generated using Cignal Lenti AR Reporter (Qiagen) and was continuously cultured with 500 ng/mL Puromycin (Gibco) for positive selection. Cells were maintained at 37° C. in a humidified incubator with 5% carbon dioxide. All cell lines were authenticated using NIST approved short tandem repeat (STR) DNA profiling performed by the University of Arizona Genetics Core and routinely tested negative for mycoplasma.
Luciferase assay. LNCaP-luc cells were seeded in clear flat bottom white polystyrene 96-well plates (Corning) at a density of 12,000 cells/well. […] Dose-response curves were fit using the delta method and t-distribution (n=1). Compounds are tested up to 10 μM.

[6] = test system: VCaP cells; test: VCaP viability assay (CellTiter-Glo); format: cell-based
Procedure: as §2, §3

## C[C@@]12O[C@@](C)(C[C@@H]1NC(=O)c1cc[nH]n1)[C@@H]1C(=O)N(c3ccc(C#N)c(C(F)(F)F)c3)C(=O)[C@@H]12 [(S)-EITM-1702, N-((3aS,4S,5S,7S,7aR)-2-(4-cyano-3-(trifluoromethyl)phenyl)-4,7-dimethyl-1,3-dioxooctahydro-1H-4,7-epoxyisoindol-5-yl)-1H-pyrazole-3-carboxamide]
[1]; 95% CI (2.1%, 2.9%)
  (S)-enantiomer contamination that halved the drug effect, ARE-luciferase: 2.5%
[1]; 95% CI (6.0%, 12.0%)
  (S)-enantiomer contamination that canceled out the antagonist effect, ARE-luciferase: 9%

## CC(O)c1cc(C(=O)N[C@@H]2C[C@@]3(C)O[C@]2(C)[C@@H]2C(=O)N(c4ccc(C#N)c(C(F)(F)F)c4F)C(=O)[C@@H]23)n[nH]1 (stereo partly drawn) [EITM-1707, N-((3aR,4R,5R,7R,7aS)-2-(4-cyano-2-fluoro-3-(trifluoromethyl)phenyl)-4,7-dimethyl-1,3-dioxooctahydro-1H-4,7-epoxyisoindol-5-yl)-5-(1-hydroxyethyl)-1H-pyrazole carboxamide]
[2]
  AR-dependent gene expression, in words: down-regulated AR-dependent gene expression
[3]; 10 μM drug
  toxic metabolite BMS-501949 detected in LCMS: not detected
[3]; 10 μM drug, listed as (R)-EITM-1707
  toxic metabolite BMS-501949 detected in LCMS: no
[3]; Unnamed metabolite (predicted active) for EITM compounds, BMS-570511 for BMS-641988, 10 μM drug, 8 h
  active metabolite detected in LCMS: yes
[3]; human, pooled human liver microsomes, pH 7.4, liver microsomes, 1 μM drug, read-out: T½
  half-life at 1 μM: 47.3 min
[3]; human, pooled human liver microsomes, pH 7.4, liver microsomes, read-out: rate of intrinsic clearance
  microsomal CLint at 1 μM: 10.3 µL/min/mg
[4]
  LNCaP proliferation / viable cells, in words: inhibit LNCaP proliferation; also recorded: inhibited the growth of LNCaP prostate cancer cells
[5]
  AR agonism / antagonism in LNCaP ARE-luciferase, in words: pure antagonists
  pEC50: 6.03
[5]; LNCaP
  Emax: 13%
[6]; 10 μM drug + 1 nM R1881, 6-d treatment
  R1881-induced growth, in words: visibly suppressed R1881-induced growth
[6]; Homo sapiens, VCaP
  pIC50: 6.39
